Measurements as given in patent EP1832586A1, “Thiazole-piperidine derivatives in treatment of diseases of liver and the pancreas” (Oridis Biomed Forschungs- und Entwicklungs GmbH, priority 2006, dated 2007).

Tests used:
Type in all cases: cell-based
[1] = test system: HuH7; assay: CellTiter-Glo luminescent cell viability (proliferation) assay, HuH7; conditions: inhibition of HuH7 (human hepatoma) proliferation, 48 hours incubation, 10% FCS
Method: (§1) To practically assess the impact of the thiazole-piperidine derivatives, e.g. derivatives of piperidinyl-thiazole carboxylic acid and/or piperidinyl thiazole carboxamide, in the treatment and/or prevention of diseases according to the invention, the inhibition of cell proliferation is determined by using a luminescent cell viability assay (CellTiter-Glo®; Promega, Madison, USA). The assay is based on the relation that the ATP content is directly proportional to the number of cells present in the culture. The CellTiter-Glo® assay is performed to measure the proliferation rate of human hepatoma (HuH7, PLC/PRF/5, Hep3B, SK-Hep1), human hepatoblastoma (HepG2), human colon carcinoma (CX-2), human breast cancer (SK-Br-3), human ovarian carcinoma (HeLa) and human pancreatic carcinoma (DAN-G) cell lines. […] In particular, the compound according to formula (1) wherein R^1 is 4-isopropoxycarbonylphenyl, R^2 is 3-indolylmethyl, R^3 is hydrogen, R^4 is hydrogen, n is zero, A is a single bond, B is carbonyl, and wherein the residue R^1NR^3CO is connected to the carbon atom bound to nitrogen of the thiazole ring (compound no. XI in Table 1) inhibits proliferation of the human cell lines HepG2 and Hep3B with 10.8 and 3.5 µM, respectively.
(§2) To determine the inhibition of cell proliferation a luminescent cell viability assay (CellTiter-Glo®; Promega, Madison, USA) is implemented. The assay is based on the relation that the ATP content is directly proportional to the number of cells present in the culture (Technical Bulletin No. 228 "CellTiter-Glo® Luminescent Cell viability Assay", Revised 2/04. Promeg, Madison, USA). The CellTiter-Glo® assay is performed to measure the proliferation rate of human hepatoma (HuH7, PLC/PRF/5, Hep3B, SK-Hep1), human hepatoblastoma (HepG2), human colon carcinoma (CX-2), human breast cancer (SK-Br-3), human ovarian carcinoma (HeLa) and human pancreatic carcinoma (DAN-G) cell lines. 3000 viable cells (viability ≥ 90%) are seeded in opaque-walled 96-well plates and incubated for 24 hours in DMEM, supplemented with 2 mM glutamin. Cell proliferation is stimulated by addition of FCS to a final concentration of 10% (v/v). Simultaneously the compounds (see Table 1 and 2) are added in a concentration range of 0 to 20 µM. Triplicates are measured for each concentration. Cells and compounds (see Table 1 and 2) are incubated for a period of 48 hours in a volume of 140 µl cell culture medium (10% (v/v) FCS, 2 mM Glutamin, DMEM). The compounds according to the invention are dissolved in 60% to 100% (v/v) DMSO at a concentration of 2 mM. The final DMSO concentration under assay conditions never exceeds 1% (v/v). Throughout the assay cells are kept in a humidified incubator (95% rH) at 37°C and 5% CO2.
(§3) The final cell number is determined after 48 hour of incubation. Therefore 140 µl CellTiter-Glo®Reagent is added in each well. The contents are mixed on an orbital shaker for 2 minutes at room temperature. After subsequent incubation for additional 10 minutes at room temperature the luminescence signal is recorded within 30 min. EC50 values are calculated using the four-parametric Hill equation (Sigma Plot). Control values are: • 1) 10% (v/v) FCS, 2 mM glutamin, DMEM -> maximum cell number • 2) 2 mM glutamin, DMEM -> initial cell number

[2] = test system: HepG2; assay: CellTiter-Glo luminescent cell viability (proliferation) assay, HepG2; conditions: HepG2 (human hepatoblastoma), 48 hours incubation, 10% FCS; read-out: inhibits proliferation
Method: (§4) To practically assess the impact of the thiazole-piperidine derivatives, e.g. derivatives of piperidinyl-thiazole carboxylic acid and/or piperidinyl thiazole carboxamide, in the treatment and/or prevention of diseases according to the invention, the inhibition of cell proliferation is determined by using a luminescent cell viability assay (CellTiter-Glo®; Promega, Madison, USA). The assay is based on the relation that the ATP content is directly proportional to the number of cells present in the culture. The CellTiter-Glo® assay is performed to measure the proliferation rate of human hepatoma (HuH7, PLC/PRF/5, Hep3B, SK-Hep1), human hepatoblastoma (HepG2), human colon carcinoma (CX-2), human breast cancer (SK-Br-3), human ovarian carcinoma (HeLa) and human pancreatic carcinoma (DAN-G) cell lines. […]
(§5) To determine the inhibition of cell proliferation a luminescent cell viability assay (CellTiter-Glo®; Promega, Madison, USA) is implemented. […] Triplicates are measured for each concentration. […]
(§6) The final cell number is determined after 48 hour of incubation. […] After subsequent incubation for additional 10 minutes at room temperature the luminescence signal is recorded within 30 min. EC50 values are calculated using the four-parametric Hill equation (Sigma Plot). […]

[3] = test system: Hep3B; assay: CellTiter-Glo luminescent cell viability (proliferation) assay, Hep3B; conditions: Hep3B (human hepatoma), 48 hours incubation, 10% FCS; read-out: inhibits proliferation
Method: as §4, §5, §6

[4] = test system: DAN-G; assay: CellTiter-Glo luminescent cell viability (proliferation) assay, DAN-G; conditions: DAN-G (human pancreatic carcinoma) proliferation, 48 hours incubation, 10% FCS
Method: as §1, §2, §3

[5] = test system: CX-2; assay: CellTiter-Glo luminescent cell viability (proliferation) assay, CX-2; conditions: CX-2 (human colon carcinoma) proliferation, 48 hours incubation, 10% FCS
Method: as §1, §2, §3

[6] = test system: HeLa; assay: CellTiter-Glo luminescent cell viability (proliferation) assay, HeLa; conditions: Hela (human ovarian carcinoma [sic]) proliferation, 48 hours incubation, 10% FCS
Method: as §1, §2, §3

[7] = test system: SK-Br-3; assay: CellTiter-Glo luminescent cell viability (proliferation) assay, SK-Br-3; conditions: Sk-Br-3 (human breast cancer) proliferation, 48 hours incubation, 10% FCS
Method: as §1, §2, §3

EC50 ([1]; Homo sapiens, Huh-7, 48 h) [µM] | EC50 [2] [µM] | EC50 [3] [µM] | EC50 [6] [µM] | EC50 [7] [µM] | EC50 ([1]; Huh-7) [µM] | Structure (SMILES) | EC50 [4] [µM] | EC50 [5] [µM]
0.36 | 10.8 | 3.5 | 26.3 | 10.2 |  | CC(C)OC(=O)c1ccc(NC(=O)c2csc(C3CCN(C(=O)CC4C=Nc5ccccc54)CC3)n2)cc1 (stereo not drawn) [XI, 2-[1-{indol-3-yl-methylcarboxyl}piperidine-4-yl]-thiazole-4-yl-caboxylic acid (4-isoproxycarboxy-phenyl) amide] | 7.63 | 22.3
1.64 |  |  | 17.2 | 10.8 |  | Cc1ccc(NC(=O)c2csc(C3CCN(C(=O)CC4C=Nc5ccccc54)CC3)n2)cc1F (stereo not drawn) [XV] | 3.81 | 10.9
0.25 |  |  | 8.91 | 16.6 |  | O=C(Nc1ccc(F)c(F)c1)c1csc(C2CCN(C(=O)CC3C=Nc4ccccc43)CC2)n1 (stereo not drawn) [XXIV] | 2.55 | 10.3
1.15 |  |  | 11.1 | 19.3 |  | Cc1ccc(S(=O)(=O)N2CCC(c3nc(C(=O)Nc4nnc(C(F)(F)F)s4)cs3)CC2)cc1Cl [XXVI] | 13.5 | 20.2
3.23 |  |  | 11.6 | > 20 |  | O=C(Nc1cc(-c2cccs2)n[nH]1)c1csc(C2CCN(C(=O)N3CCN(c4ccccn4)CC3)CC2)n1 [XXXIII] | 13.8 | > 20
0.5 |  |  | 20.5 | 10.2 |  | C=CCSc1ncccc1C(=O)N1CCC(c2nc(C(=O)Nc3cc(-c4ccccc4)nn3C)cs2)CC1 [XXXI] | 3.58 | 10.4
5.31 |  |  | 10.3 | 19.7 |  | COc1ccc(C(=O)N2CCC(c3nc(C(=O)NC4C=C(c5ccccc5)N=N4)cs3)CC2)c(OC)c1OC (stereo not drawn) [XX] | 7.8 | > 20
 |  |  | 18 | 18.9 | 1.54 | O=C(Nc1nccs1)c1csc(C2CCN(C(=O)Cc3c[nH]c4ccccc34)CC2)n1 [X] | 2.53 | > 20
